# According to patent US5571799A, “(2'-5') oligoadenylate analogues useful as inhibitors of host-v5.-graft response” (Basco, Ltd., priority 1994, dated 1996):
# “Also recorded” adds a separate entry of the source.
# Columns and labels:
# [1] = tested on: snake venom phosphodiesterase; experiment: Stability to the action of snake venom phosphodiesterase; type: in vitro ADME
# Description: Determination of (2'-5')oligoadenylates and analogues stability to the action of snake venom phosphodiesterase
# Upon entering an organism 2'-5'A3 and the analogues are quickly hydrolyzed to monomeric compound(s). Prior to administration of 2'-5'A3 analogues in vivo to animal, it was considered necessary to determine their stability towards snake venom phosphodiesterase in comparison to the parent 2'-5'A3.
# The solution of 3 μg of the snake venom phosphodiesterase (Boehringer Mannheim cat. No. 108260) in 30 μl of 0.1 M Tris HCl buffer, containing 0.002 M MgCl2 (pH 8.78) is added to the solution of 4-5·10^-7 M trimer in 100 μl of the same buffer. The solution was left standing at 20° C. At regular intervals, 10 μl samples were taken, heated at 90° C. for 1 minute and preparative thin layer chromatography was performed on the Silufole™ plates, using a 7:1:2 mixture of isopropanol:aqueous ammonia:water.
# The spot, corresponding to the initial trimer, was cut out, the substance was extracted with 2 ml of 0.5% solution of the dodecylsulfate sodium salt solution for 2 hours, and the optical density of the solution was determined at 260 nm.
# [2] = tested on: natural compound 2'-5'A3 in blood plasma and blood cells; experiment: Duration of activity in the blood of rabbits (radioimmune and fluoroimmune detection); type: in vivo; settings: 10 min after one injection, 10 μg/kg, rabbit
# Excerpt: Duration of (2'-5')A2 Ar-epoxy Activity in the Blood of Rabbits
# In order to study (2'-5')A2 Ar-epoxy pharmacodynamics, the radioimmune and fluoroimmune techniques were developed for its detection in tissue.
# T-suppressors = experiment: Immune system of monkeys: T-suppressors, flow cytofluorografic analysis; type: in vivo, Macaque Rh. monkeys; settings: for T-suppressor: single IV 25 μg/kg; for T-suppressors: single IV 50 μg/kg
# Description: Immunosuppressive activity of the prototype 2'-5'A3 and two analogues (2'-5')A2 Ar-epoxy and (2'-5')A2 A^l-epoxy were investigated in monkeys. The experiments were performed on 4 year-old Macaque Rh. monkeys. The levels of the principal subpopulations of T-lymphocytes, IgA, IgG, IgM and the amount of α- and γ-interferon and interleukin II after administration (2'-5')olygoadenylate and its analogies at the concentration of 50 and 25 μg/kg of the body weight was investigated.
# (§1) FLOW CYTOFLUOROGRAFIC ANALYSIS OF LYMPHOCYTE SUBSETS
# (§2) Blood samples (100 μl of whole blood) were placed into a 12×17 tube. To these cells 20 μl of purified monoclonal antibodies were added with specificity for human cytotoxic/suppressor cells anti-Leu-2a (CD8), human helper/inducer anti-Leu-3a (CD4) and FITC conjugated monoclonal antibodies with specificity for natural killer cells-anti-Leu11c (CD16) (Becton Dickinson, San Jose). After 30 minutes incubation on ice, the cells were washed once and 20 μl of goat-antimouse chain phycoerythrin (Sigma P1286) conjugate were added to the tube with anti-Leu-2a and anti-Leu-3a monoclonal antibodies.
# (§3) After erythrocyte lysing with FACS lysing solution (Becton Dickinson, San Jose) the cells were analyzed on FACScan flow cytometer (Becton Dickinson, San Jose) with scatter gate set on lymphocyte fraction.
# T-killers = experiment: Immune system of monkeys: T-killers, flow cytofluorografic analysis; type: in vivo, Macaque Rh. monkeys
# Description: (§4) The experiments were performed on 4 year-old Macaque Rh. monkeys. The levels of the principal subpopulations of T-lymphocytes, IgA, IgG, IgM and the amount of α- and γ-interferon and interleukin II after administration (2'-5')olygoadenylate and its analogies at the concentration of 50 and 25 μg/kg of the body weight was investigated.
# as §1, §2, §3
# transplanted kidney = experiment: Kidney allotransplantation using chinchilla rabbits; type: in vivo
# Description: Kidney allotransplantations were performed using chinchilla rabbits of the same sex, weighing 5.0-6.5 kg. In the series of 10 rabbits, allogenic kidneys were transplanted on the neck vessels, rabbit ureter was taken outside for performing ureterocutaneostoma. Anastomosis was performed on the donor kidney vessels according to the "end-into-end" pattern, with the external carotid artery and the jugular vein joined by means of their preliminary cannulation and fixation by the cannulae with the recipient vessels.
# The recipient rabbits had combined anesthesia: intravenous introduction of hexenal at a rate of 10 mg per 1.0 kg. body weight was supplemented by local anesthesia with 0.25-0.5% novocaine solution up to 15.0 ml. An intact rabbit served as a kidney donor, whose kidneys were exposed by means of transperitoneal access and perfused with 500 ml of Eurocollins solution, in situ. Simultaneously with the kidney perfusion, kidney vessels and ureters were utilized, the latter being cut at the level of iliac vessels. Having performed perfusion without extracting a kidney from the donor, kidney vessels were cannulated from the aorta and vena cava, the canulae were fixed with separate ligatures and the vessels were released. After this, the kidney was extracted.
# The organs were preserved at the temperature of melting ice. Then we proceeded directly to kidney transplantation. The preservation lasted for about 2.5-3.0 hours and thermal ischemia (secondary) duration was 30-40 minutes.
# Immunosuppression was performed by IV injection of (2'-5')A2 Ar-epoxy at a dose of 5 μg per 1.0 kg body weight at 0.1 ml of the physiologic solution daily until the conclusion of the experiment. During the first two weeks of the post-operative period, blood was taken for immunological analysis; BTR with PHA and Concanavalin A were tested.
# The results of the experiments were evaluated clinically, by the presence or absence of urination from the ureterocutaneostoma and by the behavior of the experimental animals.
# T-killers and T-helpers = experiment: Immunosuppressive activity in vivo in monkeys; design: species or system Macaque Rh. monkeys
# Description: as §4, §1, §2, §3
substance,measurement,setting,value
"Adenylyl (2'-5')adenylyl (2'-5')-9-(2,3-anhydro-β-D-ribofuranosyl) adenine disodium salt [(2'-5')A2 Ar-epoxy]",T 1/2 (time for optical density of initial trimer to decrease by 50%),"[1]; 20° C., 0.1 M Tris HCl, 0.002 M MgCl2, pH 8.78",16.0 h
same,stability / resistance to phosphodiesterase,"[1]; in words, disodium salt",significantly more resistant towards hydrolysis by phosphodiesterase; also recorded: more resistant to phosphodiesterase than (2'-5')A2 A^l-epoxy
same,resistance to snake venom phosphodiesterase relative to prototype 2'-5'A3,[1]; vs 2'-5'A3,35 fold
same,decrease of the level of natural compounds in blood plasma,[2],10 fold
same,increase of concentration of natural compounds in blood cells,[2],10 fold
same,"effect on T-suppressors, in words",T-suppressors; 25 and 50 μg/kg IV,suppresses the number of T-suppressor cells
same,T-suppressor,T-suppressors; day 0 (baseline),47%
same,T-suppressor,T-suppressors; day 1,40%
same,T-suppressor,T-suppressors; day 2,21%
same,T-suppressor,T-suppressors; day 4,11%
same,T-suppressor,T-suppressors; day 8,11%
same,T-suppressor,T-suppressors; day 12,14%
same,T-suppressor,T-suppressors; day 21,46%
same,T-suppressors,T-suppressors; day 0 (baseline),43%
same,T-suppressors,T-suppressors; day 1,31%
same,T-suppressors,T-suppressors; day 2,19%
same,T-suppressors,T-suppressors; day 4,12%
same,T-suppressors,T-suppressors; day 8,7.4%
same,T-suppressors,T-suppressors; day 12,13%
same,T-suppressors,T-suppressors; day 21,44%
same,T-killers,"T-killers; single IV 25 μg/kg, day 0 (baseline)",9.9%
same,T-killers,"T-killers; single IV 25 μg/kg, day 1",12%
same,T-killers,"T-killers; single IV 25 μg/kg, day 2",8%
same,T-killers,"T-killers; single IV 25 μg/kg, day 4",4%
same,T-killers,"T-killers; single IV 25 μg/kg, day 8",4%
same,T-killers,"T-killers; single IV 25 μg/kg, day 12",4%
same,T-killers,"T-killers; single IV 25 μg/kg, day 21",6.4%
same,T-killers,"T-killers; single IV 50 μg/kg, day 0 (baseline)",12%
same,T-killers,"T-killers; single IV 50 μg/kg, day 1",9%
same,T-killers,"T-killers; single IV 50 μg/kg, day 2",7%
same,T-killers,"T-killers; single IV 50 μg/kg, day 4",1.5%
same,T-killers,"T-killers; single IV 50 μg/kg, day 8",4.4%
same,T-killers,"T-killers; single IV 50 μg/kg, day 12",9%
same,T-killers,"T-killers; single IV 50 μg/kg, day 21",19.3%
same,animals with positive results (graft function),"transplanted kidney; 10 rabbits, 5 μg/kg daily IV",four
same,rabbits with no graft function in the early postoperative period,"transplanted kidney; 10 rabbits, probably vesicular thrombosis",four
same,time to death after nephrectomy,transplanted kidney; another rabbit,≤ 48 h
same,rabbits with generalized viral infection of the respiratory tract,transplanted kidney; fatal,2 rabbits
same,duration of function of the grafted kidney,"transplanted kidney; first group, four animals, 5 μg/kg daily IV",at least 2 months
same,"death after transplantation (wound suppuration, sepsis)","transplanted kidney; fourth group, single rabbit",death within the first week after transplantation
same,"graft function after ablation of contralateral kidney, in words","transplanted kidney; one rabbit, 1 month after operation",the grafted kidney continued functioning
same,period of normal functioning of the transplanted kidney,"transplanted kidney; rabbits, IV 5 μg/kg (summary)",3 months
same,"immunosuppressive activity, in words","T-killers and T-helpers; monkeys, IV, disodium salt",suppresses significantly the number of T-lymphocytes in blood after only 48 hours; also recorded: strong immunosuppressive activity specifically against T-killers and T-helpers; also recorded: suppressed more actively the number of T-killer and T-helpers
same,increase of the quantity of the subpopulation of T-helpers and T-killers,"T-killers and T-helpers; single IV injection (Table 10 experiment, 500 μg/kg)",about 50%
same,suppression of the number of T-killers and T-helpers,"T-killers and T-helpers; single IV injection, 48 hours, monkeys",50%
